The text below walks through data of patent US20170226507A1, “COORDINATE CONTROL OF PATHOGENIC SIGNALING BY THE MIR-130/301 FAMILY IN PULMONARY HYPERTENSION AND FIBROPROLIFERATIVE DISEASES” (The Brigham and Women's Hospital, Inc., priority 2014, published 2017).

Type in all cases: cell-based, human
The subject of series [1] is PASMCs. As to the kind of experiment: Proliferation of PASMCs (cell counting, BrdU incorporation, PCNA). An excerpt:
(§1) Pre-miRNA oligonucleotides (pre-miR-130a, pre-miR-204, pre-miR-424, and pre-miR-503 and negative control pre-miR-NC1 and premiR-NC2, Life Technologies), anti-miRNAs oligonucleotides (anti-miR-130a and anti-miR-NC, ThermoScientific), tiny LNA oligonucleotides (tiny-130: 5′-[…]-3′ (SEQ ID NO: 3), and tiny-NC 5′-[…]-3′ (SEQ ID NO: 51), Exiqon), siRNAs (PPARγ and scrambled control, Santa Cruz Biotechnology; HIF-1α, HIF-2α, and scrambled control, Life Technologies) were commercially purchased. PAECs and PASMCs were plated and transfected 24 h later at 70-80% confluence using pre-miRNA (5 nM), anti-miRNA (20 nM), tiny-LNA (20 nM) or siRNA (25 nM) with Lipofectamine 2000 reagent (Life Technologies), according to the manufacturers' instructions.
(§2) Exponentially growing cells were transfected, collected at the indicated times and counted.
(§3) Cells were lysed in RIPA buffer (Santa Cruz Biotechnology) and the protein concentration determined using a Bradford assay (Biorad). Protein lysate ([…]) were resolved by SDS-PAGE and transferred onto a PVDF membrane (Biorad). Membranes were blocked in 5% non-fat milk in TN buffer (50 mM Tris-HCl pH 7.4, 150 mM NaCl) and incubated in the presence of the primary and then secondary antibodies. After washing in TN buffer containing 0.1% Tween, immunoreactive bands were visualized with the ECL system (Amersham Biosciences). […] Primary antibodies for STAT3 (#9139) and P-STAT3 (Tyr-705; #9145) were purchased from Cell Signaling. Primary antibodies against actin (ab 3280), α-smooth-muscle-actin (ab 32575), CD31 (ab28364), and PCNA (ab 29) were obtained from Abcam. Appropriate secondary antibodies (anti-rabbit and anti-mouse) coupled to HRP were used (Santa Cruz Biotechnology).
Background: Dividing cells build labelled thymidine or BrdU into new DNA.

The subject of series [2] is PAECs. In words: Proliferation of PAECs (cell counting, BrdU incorporation, PCNA).
Text: as §1, §2, §3

For series [3], the system named is PAAFs. In words: PAAFs in soft or stiff matrix: fibrotic gene expression, immunoblot, collagen secretion. The conditions noted are these: PAAFs. As to the method:
Cell Culture and Reagents: Primary human pulmonary arterial adventitial fibroblast cells (PAAFs) were purchased and propagated in FGM cell culture media (Lonza). Experiments were performed at passages 3 to 6. Primary human pulmonary fibroblast cells (PFs) were purchased and propagated in FGM cell culture media (Lonza). Primary human pulmonary arterial endothelial cells (PAECs) were purchased and propagated in EGM-2 cell culture media (Lonza). Experiments were performed at passages 3 to 6. Primary human pulmonary arterial smooth muscle cells (PASMCs) were purchased and propagated in SmGM-2 cell culture media (Lonza). Experiments were performed at passages 3 to 9. HEK293T cells (American Type Culture Collection) were used and cultivated in DMEM containing 10% fetal bovine serum (FBS). Cells were propagated in coated collagen plastic (50 ug/mL) at 37° C. in a humidified 5% CO2 atmosphere. Collagen-coated hydrogel were purchased.
3D cell culture: Protocol was adapted from previously published protocol (Aragona M et al, 2013 Cell). Cells were embedded in a mixture of Growth Factor Reduced Matrigel (BD Biosciences) and Collagen-I (BD Biosciencres). Collagen-I solution was neutralized on ice with 0.1M NaOH in PBS and adjusted with 0.1N HCl to bring the pH of the solution to 7.5. The Collagen-I solution was then mixed on ice with Matrigel to obtain a final concentration of 1.2 mg/ml (soft matrices) or 3 mg/ml (stiff matrices). Cells were trypsinized, counted, resuspended in growth medium; then, 1 volume of cells was mixed with 1 volume of the ECM mix. 6-well plated were precoated with 1 ml of cellfree 50% medium/50% ECM, and left in the incubator until gelled; then, cells were seeded in drop on top of the pregelled ECM. After gelling, wells were supplemented with normal growth medium, which was changed every 2 days during the experiments.
Oligonucleotides and Transfection: Pre-miRNA oligonucleotides (pre-miR-130a, negative control pre-miR-NC1 and premiR-NC2) and custom designed tiny LNA oligonucleotides (tiny-130: 5′-[…]-3′ (SEQ ID NO: 52), and tiny-NC 5′-[…]-3′ (SEQ ID NO: 54)) were purchased from Life Technologies/Ambion and Exiqon, respectively. siRNAs for PPARγ and OCT4/POU5F1 were purchased from Santa Cruz Biotechnology. siRNA for TIMP2 was purchased from Life Technologies. On Target Plus siRNAs for YAP1, TAZ (WWTR1), LRP8 and scrambled control were purchased from ThermoScientific/Dhermacon. PAAF, PF, PAEC and PASMC were plated in collagen-coated dish (50 ug/mL) and transfected 24 h later at 70-80% confluence using pre-miRNA (5 nM), tiny-LNA (20 nM) or siRNA (25 nM) and Lipofectamine 2000 reagent (Life Technologies), according to the manufacturers' instructions. 8 hours after transfection cells were trypsinized and re-plated in the different hydrogel/3D-matrix.
Primary human pulmonary arterial adventitial fibroblast cells (PAAFs) were purchased (ScienCell Research Laboratories) and grown in FGM cell culture media (Lonza). Experiments were performed at passages 3 to 6. Primary human pulmonary arterial endothelial cells (PAECs) were grown in EGM-2 cell culture media (Lonza), and experiments were performed at passages 3 to 6. Primary human pulmonary arterial smooth muscle cells (PASMCs) were cultured in SmGM-2 cell culture media (Lonza), and experiments were performed at passages 3 to 9. HEK293T cells (American Type Culture Collection) were cultivated in DMEM containing 10% fetal bovine serum (FBS). […]
In general terms: Immunoblotting shows a protein as a band on a membrane.

In series [4] the test system is endothelin-1. As to the kind of experiment: Quantification of endothelin-1 by ELISA in conditioned media of PAECs. As to conditions: mimic: normoxia and hypoxia, inhibitors: hypoxia 0.2% O2. As to the method: Twenty-four hours after transfection PAECs were washed in PBS, and medium was replaced by media without serum. Twenty-four hour later conditioned media from PAEC transfected as indicated were collected and endothelin-1 was measured by ELISA kit (Enzo biosciences) according to the manufacturer's protocol. Human plasma sample (see below) and mouse plasma were also tested for endothelin-1 level by ELISA.
(In general: An ELISA detects its analyte on a solid surface through an enzyme-linked reagent.)

The mark [5] stands for this setting: exponentially growing, BrdU pulse 1 h.
Where [6] appears, read: immunoblot 48 hours after transfection.

On to “tiny-LNA-130: fully LNA-modified tiny LNA oligonucleotide 5′-ATTGCACT-3′ (SEQ ID NO: 3) complementary to the seed region of the miR-130/301 family (all LNA, backbone and methylation of C not given here)”, for which the number of cells result in series [1] (counted each day during 3 days) and in series [2] (counted each day during 3 days) was “greater decrease in the number of cells compared with anti-miR-130a” in each case. Besides, the “BrdU incorporation (proliferation)” value in series [1] (setting [5]) and in series [2] (setting [5]) was “greater decrease in proliferation compared with anti-miR-130a” each time. In addition, the PCNA expression entry in series [1] (setting [6]) and in series [2] (setting [6]) was “more substantial decrease” each time. In series [3], the “collagen content of conditioned media (collagen secretion)” value was “decreased”. Further, in series [3] (immunoblot, tiny-LNA-130 in stiff conditions), the ApoE result is “increased”. Further, the “collagen transcripts, LOX and CTGF” value in series [3] (mimic in soft matrix, tiny-LNA-130 in high ECM stiffness) was “decreased”. Further, the “mature endothelin-1 in conditioned media” value in series [4] is listed as “decreased endothelin-1 expression to a greater extent than inhibition of miR-130a alone”.
